Experimental data reported in patent EP0407582A1, “DERIVATIVES OF TRICHLOROPHOSPHAS[…] INSECTICIDAL, VIRICIDAL, HEMATOCIDAL, FUNGICIDAL AND OVOCIDAL PREPARATIONS BASED ON THEM” (priority 1989, dated 1990).
Where two headings read alike, the source gives them in different places.

What was measured:
domestic flies [1] = assay: Insecticidal activity, large-scale test in living and industrial premises; format: in vivo; conditions: 0.25% solution with 5% glucose solution, 2-3 dishes per 20 m2; 72 hours
Method: The large-scale tests of the activity of the insecticidal composition, according to the invention, was conducted on domestic flies in living and industrial premises. Petri dishes containing a 0.25% aqueous solution of the insecticide, according to the invention, added with a 5% glucose solution, were put at a rate of 2-3 dishes per 20 m2. The .activity of the composition of the invention was estimated by a direct count of dead insects in 72 hours or by using the adhesive tapes, counting the number of flies on the tape prior and after carrying out the test.

domestic flies [2] = assay: Insecticidal activity, laboratory test in gauze boxes; format: in vivo; conditions: 0.25% solution in 5% aqueous glucose solution; death rate estimated in 48 - 72 hours
Method: An insecticidal composition based thereon, which was a 0.25% solution of this compound in a 5% aqueous glucose solution, was prepared. The laboratory and large-scale tests of the activity of an insecticidal composition of the invention was conducted on domestic flies. for laboratory tests into the gauze-made boxes (10x10 cm, 6 boxes), there were placed 6-7-day flies of both sexes by 50 individuals per each box. Into 5 boxes there were placed Petri dishes containing the insecticidal composition of the invention. The death rate of flies was estimated-in 48 - 72 hours. A Petri dish containing a 5% aqueous solution of glucose was placed into the control box. The insecticidal activity of the composition, according to the invention, was tested in comparison with a known insecticidal composition containing 0,0-dimethyl-/1-hydroay-2,2-trichloroethyl/phosphonate.

[3] = Solubility in water and organic solvents; format: physicochemical; conditions: qualitative, solvents named
poliomyelitis virus = assay: microbe, parasite or virus in culture; format: cell-based, poliomyelitis-II virus
hepatitis B virus [4] = assay: Virucidal activity, suspension method under protein loading, counter-current immunoelectrophoresis
influenza A virus [5] = assay: microbe, parasite or virus in culture; set-up: species or system strain of influenza A1 virus
hepatitis B virus [6] = system: hepatitis B virus
influenza A virus [7] = system: influenza A virus
Diplodia zeae [8] = assay: Fungicidal activity, field test on sprayed potato plots; format: in vivo
Method: (§1) In the field conditions potato plantations of 5 m^2 in size affected by Fusarium oxysporem, Fusarium moniliforme, Betrytis cinerea, Fusarium culmorum, Diplodia Verturia inaequalis, Rhyzoctonia aderholdii were sprayed by a fungicidal composition of the. invention.
(§2) For comparison, a similar spraying of the affected potato-plots was carried out using a. known fungicidal compositions.

Fusarium culmorum [9] = assay: as above; format: in vivo
Method: as §1, §2

Botrytis cinerea [10] = assay: as above; format: in vivo
Method: as §1, §2

Rhyzoctonia aderholdii [11] = assay: as above; format: in vivo
Method: as §1, §2

Verturia inaequalis [12] = assay: as above; format: in vivo
Method: as §1, §2

Fusarium moniliforme [13] = assay: as above; format: in vivo
Method: as §1, §2

Fusarium oxysporum [14] = assay: as above; format: in vivo
Method: as §1, §2

Verticillium albo-atrum [15] = assay: as above; format: in vivo
Rhyzoctonia violacea [16] = assay: as above; format: in vivo
Verticillium albo-atrum [17] = assay: Fungicidal activity, laboratory test on potato-dextrose agar; format: cell-based; conditions: 0.01 % by mass of active principle
Method: (§3) Based on the compound, a fungicidal composition was prepared in the form of a 0.01% solution thereof in distilled water. A fungicidal activity of the compound, according to the invention, was tested for inhibition of vegetative fungi growth such as Fusarium oxyporum, Fusarium moniliforme, Botrytis cinerea, Fusarium culmorum, Diplodia zeae, Rhyzoctonia violacea, Verticillium alboartrum, Verturia inaequalis, Rhyzoctonia aderholdii affecting potato, sugar beet, cotton seeds. The tests were conducted either in laboratory or in field conditions. For tests, the composition of the invention containing-0.01 % by mass of an active principle was introduced into Petri dishes with a nutrient medium, specifically, potato-dextrose agar. The phytopathogenic fungi mycelium was plated on the Petri dishes with this agar culture. The phytopathogenic fungi were plated on control dishes with agar culture without adding the composition of the invention. The fungicidal action of the composition, according to the invention, was tested in comparison with the known fungicidal composition based on 2,3-dichloronaphthoquinone-1,4 (phygon), zinc N,N'-ethylene-bis-(dithiocarbamate) (zineb) and thiuram.

Rhyzoctonia violacea [18] = assay: as above; format: cell-based; conditions: 0.01 % by mass of active principle
Method: as §3

Diplodia zeae [19] = assay: as above; format: cell-based; conditions: 0.01 % by mass of active principle
Method: as §3

Fusarium culmorum [20] = assay: as above; format: cell-based; conditions: 0.01 % by mass of active principle
Method: as §3

Botrytis cinerea [21] = assay: as above; format: cell-based; conditions: 0.01 % by mass of active principle
Method: as §3

Rhyzoctonia aderholdii [22] = assay: as above; format: cell-based; conditions: 0.01 % by mass of active principle
Method: as §3

Verturia inaequalis [23] = assay: as above; format: cell-based; conditions: 0.01 % by mass of active principle
Method: as §3

Fusarium moniliforme [24] = assay: as above; format: cell-based; conditions: 0.01 % by mass of active principle
Method: as §3

Fusarium oxysporum [25] = assay: as above; format: cell-based; conditions: 0.01 % by mass of active principle
Method: as §3

| SMILES | solubility [3] | Inhibition of colony growth of phytopatogenic,fungi,% Diplidia zeae field (Diplodia zeae [8]) | Inhibition of colony growth of phytopatogenic,fungi,% Fusarium culmorum field (Fusarium culmorum [9]) | Inhibition of colony growth of phyto-pathogenic fungi, % Botrytis cinerea field (Botrytis cinerea [10]) | Inhibition of colony growth of phytopathogenic fungi,% Rhyzoctonia aderholdii field (Rhyzoctonia aderholdii [11]) | Inhibition of colony growth of phytopathogenic fungi,% Verturia inaequalis field (Verturia inaequalis [12]) | Inhibition of colony growth of phyto-pathogenic fungi, % Fusarium moniliforme field (Fusarium moniliforme [13]) | Inhibition of colony growth of phyto-pathogenic fungi, % Fusarium oxysporum field (Fusarium oxysporum [14]) | Inhibition of colony growth of phytopathogenic fungi,% Verticillium albo-atrum field (Verticillium albo-atrum [15]) | Inhibition of colony growth of phytopatogenic,fungi,% Rhyzoctonia violacea field (Rhyzoctonia violacea [16]) | Inhibition of colony growth of phytopathogenic fungi,% Verticillium albo-atrum laboratory (Verticillium albo-atrum [17]) | Inhibition of colony growth of phytopatogenic,fungi,% Rhyzoctonia violacea laboratory (Rhyzoctonia violacea [18]) | Inhibition of colony growth of phytopatogenic,fungi,% Diplidia zeae laboratory (Diplodia zeae [19]) | Inhibition of colony growth of phytopatogenic,fungi,% Fusarium culmorum laboratory (Fusarium culmorum [20]) | Inhibition of colony growth of phyto-pathogenic fungi, % Botrytis cinerea laboratory (Botrytis cinerea [21]) | Inhibition of colony growth of phytopathogenic fungi,% Rhyzoctonia aderholdii laboratory (Rhyzoctonia aderholdii [22]) | Inhibition of colony growth of phytopathogenic fungi,% Verturia inaequalis laboratory (Verturia inaequalis [23]) | Inhibition of colony growth of phyto-pathogenic fungi, % Fusarium moniliforme laboratory (Fusarium moniliforme [24]) | Inhibition of colony growth of phyto-pathogenic fungi, % Fusarium oxysporum laboratory (Fusarium oxysporum [25]) | other results |
| --- | --- | --- | --- | --- | --- | --- | --- | --- | --- | --- | --- | --- | --- | --- | --- | --- | --- | --- | --- | --- |
| CC(C)(OP(=NC(=O)c1ccccc1)(OC(C)(C)C(Cl)(Cl)Cl)OC(C)(C)C(Cl)(Cl)Cl)C(Cl)(Cl)Cl [Example 2, tris-(dimethyl-2,2,2-trichloroethoxy)phosphazobenzoyl] | soluble in water, alcohols, acetone, benzene, toluene |  |  |  |  |  |  |  |  |  |  |  |  |  |  |  |  |  |  | Death of flies, % Tests large-scale (domestic flies [1]): 88%; Death of flies, % Tests laboratory (domestic flies [2]): 90% |
| O=S(=O)(NCl)c1ccccc1.[Na] [sodium-N-chloro-benzene sulf-amide, sodium N-chlorobenzene sulphonamide] |  |  |  |  |  |  |  |  |  |  |  |  |  |  |  |  |  |  |  | killing at 1 % (poliomyelitis virus; 10 min, read-out: Death of viruses (%) under exposure, Poliomyelitis, 10 min): 0%; killing at 1 % (poliomyelitis virus; 0.5 h, read-out: Death of viruses (%) under exposure, Poliomyelitis, 30 min): 12.5%; killing at 1 % (poliomyelitis virus; 1 h, read-out: Death of viruses (%) under exposure, Poliomyelitis, 60 min): 25%; killing at 1 % (hepatitis B virus [4]; 0.25 h, read-out: Death of viruses (%) under exposure, Hepatitis B, 15 min): 0%; killing at 1 % (hepatitis B virus [4]; 0.5 h, read-out: Death of viruses (%) under exposure, Hepatitis B, 30 min): 12.5%; killing at 1 % (hepatitis B virus [4]; 1 h, read-out: Death of viruses (%) under exposure, Hepatitis B, 60 min): 25%; killing at 1 % (influenza A virus [5]; 0.25 h, read-out: Death of viruses (%) under exposure, Influenza A, 15 min): 0%; killing at 1 % (influenza A virus [5]; 0.5 h, read-out: Death of viruses (%) under exposure, Influenza A, 30 min): 12.5%; killing at 1 % (influenza A virus [5]; 1 h, read-out: Death of viruses (%) under exposure, Influenza A, 60 min): 25%; inhibition of viral antigen titers, Hepatitis B virus (hepatitis B virus [6]): 50; inhibition of viral antigen titers, Influenza A virus (influenza A virus [7]): 50 |
| S=C([S-])NCCNC(=S)[S-].[Zn+2] [zineb, zinc N,N'-ethylene-bis-(dithiocarbamate)] |  | 100% | 54% | 98% | 100% | 98% | 62% | 59% | 78% | 100% | 80% | 100% | 100% | 57% | 100% | 100% | 100% | 60% | 58% |  |
| O=C(N=P(OCCCl)(OCCCl)OCCCl)c1ccccc1 [Example 1, tris-(2-chloroethoxy)phosphazobenzoyl] | soluble in water, alcohols, toluene |  |  |  |  |  |  |  |  |  |  |  |  |  |  |  |  |  |  | Death of flies, % Tests large-scale (domestic flies [1]): 85%; Death of flies, % Tests laboratory (domestic flies [2]): 86% |
| O=C1C(Cl)=C(Cl)C(=O)c2ccccc21 [phygon, 2,3-dichloronaphthoquinone-1,4] |  | 81% | 45% | 32% | 55% | 61% | 32% | 30% | 66% | 33% | 63% | 34% | 71% | 57% | 38% | 54% | 58% | 35% | 35% |  |
| O=C(N=P(OC[C@@H](NC(=O)C(Cl)Cl)[C@H](O)c1ccc([N+](=O)[O-])cc1)(OC[C@@H](NC(=O)C(Cl)Cl)[C@H](O)c1ccc([N+](=O)[O-])cc1)OC[C@@H](NC(=O)C(Cl)Cl)[C@H](O)c1ccc([N+](=O)[O-])cc1)c1ccccc1 [Example 4, tris-d/-/-threo-3-para nitrophenyl--2-dichloroacetamido-3-hydroxypropoxy/phosphazobenzoyl] |  |  |  |  |  |  |  |  |  |  |  |  |  |  |  |  |  |  |  | inhibition of viral antigen titers, Hepatitis B virus (hepatitis B virus [6]; 1% solution in 0.85% sodium chloride, exposure 5, 30, 60 minutes): 100; inhibition of viral antigen titers, Influenza A virus (influenza A virus [7]; 1% solution): 100 |
| O=C(N=P(Nc1ccc(Cl)cc1[N+](=O)[O-])(Nc1ccc(Cl)cc1[N+](=O)[O-])Nc1ccc(Cl)cc1[N+](=O)[O-])c1ccc(Br)cc1 [Example 6, tris--(para-chloro -ortho-nitroanilido)phosphazo-para-bromobenzoyl] | soluble in water, acetone, alcohols, benzene | 100% | 69% | 100% | 100% | 100% | 100% | 100% | 100% | 100% | 100% | 100% | 100% | 70% | 100% | 100% | 100% | 100% | 100% |  |
